From US6797462B1, “Cell-based assay for immunodeficiency virus infectivity and sensitivity” (UAB Research Foundation, priority 1998, dated 2004)

Tested on: HIV YU2
Assay: Protease inhibitor sensitivity: J53tat cells infected with HIV YU2 with drug, supernatant used to infect J53BL cells
Type: cell-based, HIV-1
Conditions: for Number of colony formed in the presence of protease Inhibitor Indinavir: YU2, J53tat then J53BL
Protocol: The J53tat cell line is used to produce virus and thereby enable viral testing of drug candidates that affect various stages of the virus life cycle. Thus, viral drug resistance mutations in early stage targets such as reverse transcriptase (RT), integrase (IN) and env; and late stage targets such as protease and Gag are analyzed by the methods of the present invention. The J53tat cells are infected with HIV YU2 (MOI of either 0.2 or 0.04), and protease inhibitor (indinavir) is added to the cultures at various concentrations. Forty hours after infection the culture supernatant is collected and used to infect the J53BL cell line in the presence of the same drug concentrations.

CC(C)(C)NC(=O)[C@@H]1CN(Cc2cccnc2)CCN1C[C@@H](O)C[C@@H](Cc1ccccc1)C(=O)N[C@H]1c2ccccc2C[C@H]1O [indinavir]
Number of colony formed in the presence of protease Inhibitor Indinavir (0.04 M.O.I, 0.008 MM indinavir): 105
Number of colony formed in the presence of protease Inhibitor Indinavir (0.04 M.O.I, 0.2 MM indinavir): 2
Number of colony formed in the presence of protease Inhibitor Indinavir (0.04 M.O.I, 1.0 MM indinavir): 0
Number of colony formed in the presence of protease Inhibitor Indinavir (0.04 M.O.I): 2
Number of colony formed in the presence of protease Inhibitor Indinavir (0.2 M.O.I, 0.008 MM indinavir): >1000
Number of colony formed in the presence of protease Inhibitor Indinavir (0.2 M.O.I, 0.2 MM indinavir): 99
Number of colony formed in the presence of protease Inhibitor Indinavir (0.2 M.O.I, 1.0 MM indinavir): 0
Number of colony formed in the presence of protease Inhibitor Indinavir (0.2 M.O.I): 343
Sensitivity of YU2 to protease inhibitor (increasing concentrations causing greater inhibition): sensitive
